Columns and labels:
Conditions in all cases: 72 h
HepG2 [1] = assay: drug sensitivity score (DSS) for viability; higher = more toxic; extreme values may be limits of the assay
U2OS [2] = assay: as above
Vero E6 [3] = assay: as above
Caco-2 [4] = assay: as above
Calu-3 [5] = assay: as above
HepG2 [6] = assay: cell viability relative to DMSO; higher = less toxic
U2OS [7] = assay: as above
Vero E6 [8] = assay: as above
Caco-2 [9] = assay: as above
Calu-3 [10] = assay: as above
HepG2 [11] = assay: relative viability EC50 (midpoint between 100% and the lowest measured viability); higher = less toxic
U2OS [12] = assay: as above
Vero E6 [13] = assay: as above
Caco-2 [14] = assay: as above
Calu-3 [15] = assay: as above

Structure (SMILES) | drug sensitivity score (HepG2 [1]) | drug sensitivity score (U2OS [2]) | drug sensitivity score (Vero E6 [3]) | drug sensitivity score (Caco-2 [4]) | drug sensitivity score (Calu-3 [5]) | cell viability (HepG2 [6]; 1 nM) | cell viability (HepG2 [6]; 10 nM) | cell viability (HepG2 [6]; 100 nM) | cell viability (HepG2 [6]; 1000 nM) | cell viability (HepG2 [6]; 10000 nM) | cell viability (U2OS [7]; 1 nM) | cell viability (U2OS [7]; 10 nM) | cell viability (U2OS [7]; 100 nM) | cell viability (U2OS [7]; 1000 nM) | cell viability (U2OS [7]; 10000 nM) | cell viability (Vero E6 [8]; 1 nM) | cell viability (Vero E6 [8]; 10 nM) | cell viability (Vero E6 [8]; 100 nM) | cell viability (Vero E6 [8]; 1000 nM) | cell viability (Vero E6 [8]; 10000 nM) | cell viability (Caco-2 [9]; 1 nM) | cell viability (Caco-2 [9]; 10 nM) | cell viability (Caco-2 [9]; 100 nM) | cell viability (Caco-2 [9]; 1000 nM) | cell viability (Caco-2 [9]; 10000 nM) | cell viability (Calu-3 [10]; 1 nM) | cell viability (Calu-3 [10]; 10 nM) | cell viability (Calu-3 [10]; 100 nM) | cell viability (Calu-3 [10]; 1000 nM) | cell viability (Calu-3 [10]; 10000 nM) | relative viability EC50 (HepG2 [11]) | relative viability EC50 (U2OS [12]) | relative viability EC50 (Vero E6 [13]) | relative viability EC50 (Caco-2 [14]) | relative viability EC50 (Calu-3 [15])
CCCn1c(=O)c2[nH]cnc2n(-c2ccc(Cl)cc2)c1=O [arofylline] | 0 | 0 | 0 | 0 | 0 | 104% | 102% | 99.1% | 100% | 101% | 103% | 99.1% | 102% | 96.8% | 98.9% | 108% | 108% | 101% | 98.3% | 96% | 87.3% | 97.6% | 94.4% | 87.9% | 95.5% | 97.7% | 95.4% | 103% | 96.8% | 92.2% | > 10 µM | > 10 µM | > 10 µM | > 10 µM | > 10 µM
CN1CCN(CCCCN2C(=O)CN(/N=C/c3ccc(-c4ccc(Cl)cc4)o3)C2=O)CC1 [azimilide] | 0.1 | 0 | 0 | 0 | 0 | 99.8% | 106% | 101% | 103% | 85.3% | 103% | 97.1% | 99.8% | 98.2% | 98.5% | 101% | 98.7% | 100% | 96.9% | 98.1% | 97.4% | 102% | 94.4% | 98.7% | 94.5% | 86.7% | 96.6% | 91% | 106% | 92.1% | > 10 µM | > 10 µM | > 10 µM | > 10 µM | > 10 µM
Cn1c(COc2ccc(CC3SC(=O)NC3=O)cc2)nc2ccccc2c1=O (stereo not given) [balaglitazone] | 0 | 0 | 0 | 0.1 | 0.2 | 88.5% | 104% | 85.7% | 100% | 99.2% | 96.4% | 95% | 97.3% | 91.8% | 92% | 98.2% | 94.8% | 88.6% | 93.4% | 101% | 91.7% | 106% | 90.7% | 96.4% | 85.3% | 95% | 95% | 103% | 103% | 84.3% | > 10 µM | > 10 µM | > 10 µM | > 10 µM | > 10 µM
CCc1oc2ccccc2c1C(=O)c1cc(Br)c(O)c(Br)c1 [benzbromarone] | 0 | 0 | 0 | 1.7 | 0 | 109% | 101% | 96.4% | 102% | 102% | 99.9% | 94.8% | 102% | 102% | 105% | 103% | 108% | 104% | 105% | 99.8% | 101% | 93.5% | 105% | 83.1% | 89.9% | 104% | 90.5% | 105% | 99.4% | 107% | > 10 µM | > 10 µM | > 10 µM | > 10 µM | > 10 µM
C[N+]1(C)CCc2cc3c(cc2[C@H]1[C@@H]1OC(=O)c2c1ccc1c2OCO1)OCO3 [bicuculline-methochloride-(-)] | 0 | 0 | 0 | 2.5 | 0 | 101% | 98.7% | 93.9% | 92.8% | 108% | 95.1% | 99.9% | 99.2% | 98.9% | 100% | 98.6% | 97% | 99.2% | 103% | 100% | 101% | 118% | 98% | 81.9% | 97.3% | 89% | 104% | 85% | 88% | 110% | > 10 µM | > 10 µM | > 10 µM | > 10 µM | > 10 µM
CC(C)NCC(O)COc1ccc(COCCOC(C)C)cc1 (stereo not given) [bisoprolol] | 0 | 0 | 0 | 0 | 0 | 104% | 98.9% | 91.2% | 103% | 90.6% | 93.6% | 94% | 101% | 95% | 103% | 92% | 98.3% | 93.3% | 104% | 107% | 91.3% | 95.8% | 103% | 100% | 99.2% | 95.5% | 103% | 108% | 97.8% | 108% | > 10 µM | > 10 µM | > 10 µM | > 10 µM | > 10 µM
COc1cc(OC)c(C(=O)CCCN2CCCC2)c(OC)c1 [buflomedil] | 0 | 0 | 0 | 0 | 0 | 90.5% | 97.2% | 97.3% | 94.4% | 99% | 104% | 99.3% | 102% | 98.8% | 108% | 95.7% | 99% | 94.1% | 97.5% | 108% | 101% | 103% | 96.2% | 96% | 106% | 87.5% | 86.3% | 90.2% | 88.6% | 101% | > 10 µM | > 10 µM | > 10 µM | > 10 µM | > 10 µM
CCCCNC(=O)[C@@H]1Cc2ccccc2N1C(=O)[C@@H](N)CC [butabindide] | 0 | 0 | 0 | 0 | 0 | 106% | 97.2% | 109% | 108% | 106% | 95.9% | 98.9% | 95.7% | 106% | 106% | 98.7% | 88.4% | 98.9% | 91.7% | 101% | 89.3% | 99.2% | 86.1% | 103% | 108% | 95.2% | 99.7% | 97.1% | 97.1% | 128% | > 10 µM | > 10 µM | > 10 µM | > 10 µM | > 10 µM
C=C1/C(=C\C=C2/CCC[C@]3(C)[C@@H]([C@H](C)CCCC(C)(C)O)CC[C@@H]23)C[C@@H](O)C[C@@H]1O [calcitriol] | 0 | 0 | 0 | 0 | 0 | 116% | 112% | 102% | 92.6% | 96.2% | 100% | 104% | 95.9% | 103% | 92.8% | 106% | 102% | 104% | 98.1% | 97.8% | 101% | 104% | 105% | 101% | 92.5% | 100% | 106% | 96.7% | 101% | 96.8% | > 10 µM | > 10 µM | > 10 µM | > 10 µM | > 10 µM
CC1/C=C/C=C/C=C/C=C/C=C/C=C/C=C/C(OC2O[C@H](C)[C@@H](O)[C@H](N)[C@@H]2O)CC(O)C(C(=O)O)C(O)CC(=O)CC(O)CC(O)CC(O)CC(=O)CCCC(=O)CC(=O)OC1C(C)CC(C)C(O)CC(=O)c1ccc(N)cc1 (stereo not given in full) [candicidin] | 0 | 0 | 0.6 | 0 | 0 | 109% | 96.4% | 103% | 103% | 98.6% | 105% | 99.9% | 101% | 101% | 96.8% | 101% | 104% | 96.7% | 104% | 77.2% | 82% | 90.8% | 87.1% | 92% | 77.1% | 101% | 102% | 102% | 104% | 97.5% | > 10 µM | > 10 µM | > 10 µM | > 10 µM | > 10 µM
CNC(=O)ON(C(C)=O)C(=O)NC [caracemide] | 0 | 0 | 0 | 0 | 0 | 107% | 104% | 112% | 93.8% | 108% | 94.8% | 102% | 99.3% | 103% | 106% | 97.2% | 96.9% | 99.6% | 94.7% | 112% | 89.6% | 103% | 95.8% | 97.1% | 99.7% | 94% | 102% | 111% | 101% | 98.3% | > 10 µM | > 10 µM | > 10 µM | > 10 µM | > 10 µM
Cc1ccc(-c2cc(C(F)(F)F)nn2-c2ccc(S(N)(=O)=O)cc2)cc1 [celecoxib] | 0 | 0 | 0 | 0 | 0 | 115% | 98.4% | 99.3% | 100% | 95.1% | 92.4% | 99.6% | 92.4% | 97.7% | 98.4% | 101% | 85.4% | 102% | 94.1% | 104% | 99.1% | 79.8% | 105% | 90.6% | 103% | 99.4% | 100% | 98.2% | 101% | 114% | > 10 µM | > 10 µM | > 10 µM | > 10 µM | > 10 µM
O=C([O-])c1ccccn1.O=C([O-])c1ccccn1.O=C([O-])c1ccccn1.[Cr+3] [chromium-picolinate] | 0 | 0 | 0 | 0 | 0 | 93% | 95.3% | 103% | 98.7% | 90.1% | 104% | 97.7% | 98.6% | 98.9% | 102% | 102% | 103% | 105% | 99.2% | 101% | 105% | 92% | 104% | 95.5% | 103% | 111% | 102% | 113% | 103% | 97.6% | > 10 µM | > 10 µM | > 10 µM | > 10 µM | > 10 µM
Clc1ccc(Cn2c(CN3CCCC3)nc3ccccc32)cc1 [clemizole] | 0 | 0 | 0 | 0.5 | 0 | 112% | 111% | 94.3% | 106% | 89.1% | 101% | 97.7% | 98.6% | 105% | 97.8% | 102% | 104% | 103% | 99.2% | 92.3% | 95.5% | 94.7% | 97.6% | 97% | 84.7% | 95.7% | 98.4% | 101% | 101% | 107% | > 10 µM | > 10 µM | > 10 µM | > 10 µM | > 10 µM
